Measurements: US20250170153A1, “METHODS FOR THE TREATMENT OF ANXIETY DISORDER” (ANANDA SCIENTIFIC, INC., priority 2022, published 2025)

Columns and labels:
[1] = rat, 120 mg/kg dose; cited from earlier work
[2] = Chemical characteristics of composition A′, concentrated and diluted forms; type: physicochemical
Protocol: Several tests were conducted to determine the chemical characteristics of composition A′, both in concentrated and diluted forms. […] All liquid nanodomain droplets range in size from 5 to 20 nm. The pH of both the concentrate and diluted formulations is between 6.0 and 7.5.

C=C(C)[C@@H]1CCC(C)=C[C@H]1c1c(O)cc(CCCCC)cc1O [CBD, 2-(1R,6R)-3-methyl-6-prop-1-en-2-ylcyclohex-2-en-1-yl-5-pentylbenzene-1,3-diol]
T1/2 [1]: 4 to 5 h | logP [2]: 6 | Association of CBD with formulation phases during storage ([2]; both concentrated and diluted forms of composition A′): remained associated with the surfactant and lipid phases
